Values after ≈ are worked out from the molar mass of the structure shown.
Columns and labels:
Escherichia coli [1] = assay: Antibacterial activity against quinolone resistance Escherichia coli isolate ELZ4251 harboring gyrA/parC mutant by CLSI M100-S17 protocol based method; assay type: functional
Escherichia coli [2] = assay: Antibacterial activity against fluoroquinolone resistant Escherichia coli SKM18 by CLSI M100-S17 protocol based method; assay type: functional
Acinetobacter baumannii [3] = assay: Antibacterial activity against fluoroquinolone resistant Acinetobacter baumannii isolate MMX2240 by CLSI M100-S17 protocol based method; assay type: functional
Acinetobacter baumannii [4] = assay: Antibacterial activity against wild type Acinetobacter baumannii ATCC BAA-747 by CLSI M100-S17 protocol based method; assay type: functional
Escherichia coli [5] = assay: Antibacterial activity against wild type Escherichia coli ATCC 25922 in presence of HSA by CLSI M100-S17 protocol based method; assay type: functional
Escherichia coli [6] = assay: Selectivity ratio of MIC for wild type Escherichia coli ATCC 25922 in presence of HSA to MIC for wild type Escherichia coli ATCC 25922; assay type: functional
Klebsiella pneumoniae = assay: Antibacterial activity against wild type Klebsiella pneumoniae ATCC 35657 by CLSI M100-S17 protocol based method; assay type: functional
Escherichia coli [7] = assay: Antibacterial activity against wild type Escherichia coli ATCC 25922 by CLSI M100-S17 protocol based method; assay type: functional
[8] = Inhibition of Escherichia coli DNA topoisomerase 4 assessed as reduction in decatenation activity using kinetoplast concatenated DNA as substrate after 30 mins by picogreen dye based fluorescence assay

Compound | MIC (Escherichia coli [1]) [µg/mL] | MIC (Escherichia coli [2]) [µg/mL] | MIC (Acinetobacter baumannii [3]) [µg/mL] | MIC (Acinetobacter baumannii [4]) [µg/mL] | MIC (Escherichia coli [5]) [µg/mL] | Ratio (Escherichia coli [6]) | MIC (Klebsiella pneumoniae) [µg/mL] | MIC (Escherichia coli [7]) [µg/mL] | IC50 [8] [µM]
CCc1c(-c2ccc3c(c2)cc(CN(C)C)n3C)[nH]c(=O)c(C(=O)O)c1O | 6.3 (≈ 17.1 µM) | 6.3 (≈ 17.1 µM) | 3.1 (≈ 8.39 µM) | 0.78 (≈ 2.11 µM) | 3.1 | 2 - 4 | 0.78 (≈ 2.11 µM) | 0.39 (≈ 1.06 µM) | –
CCc1c(-c2ccc3c(c2)cc(CNC(C)C)n3C)[nH]c(=O)c(C(=O)O)c1O | 3.1 (≈ 8.08 µM) | 1.6 (≈ 4.17 µM) | 3.1 (≈ 8.08 µM) | 0.78 (≈ 2.03 µM) | 1.6 | – | 0.39 (≈ 1.02 µM) | 0.39 (≈ 1.02 µM) | –
CCc1c(-c2ccc3c(c2)c(C)c(C)n3C)[nH]c(=O)c(C(=O)O)c1O | – | – | – | – | – | – | – | > 12.5 | –
CCc1c(-c2ccc(N(C)C)cc2)[nH]c(=O)c(C(=O)O)c1O | 15.6 (≈ 51.6 µM) | 15.6 (≈ 51.6 µM) | 6.3 (≈ 20.8 µM) | 1.6 (≈ 5.29 µM) | > 62.5 | – | 3.1 (≈ 10.3 µM) | 0.78 (≈ 2.58 µM) | –
CC(C)NCc1cc2cc3c(cc2n1C)OCCc1c-3[nH]c(=O)c(C(=O)O)c1O | 1 (≈ 2.52 µM) | 0.49 (≈ 1.23 µM) | 6.3 (≈ 15.9 µM) | 3.9 (≈ 9.81 µM) | 2 | 2 - 4 | 1.6 (≈ 4.03 µM) | 0.49 (≈ 1.23 µM) | –
Cc1c(-c2ccc3c(c2)cc(CN(C)C)n3C)[nH]c(=O)c(C(=O)O)c1O | 3.1 (≈ 8.72 µM) | 1.6 (≈ 4.5 µM) | 1.6 (≈ 4.5 µM) | 6.3 (≈ 17.7 µM) | 12.5 | – | 6.3 (≈ 17.7 µM) | 6.3 (≈ 17.7 µM) | –
Cn1c(CN2CCCC2)cc2cc3c(cc21)SCCc1c-3[nH]c(=O)c(C(=O)O)c1O | – | 2 (≈ 4.7 µM) | 3.9 (≈ 9.17 µM) | 2 (≈ 4.7 µM) | 31.3 | – | 2 (≈ 4.7 µM) | 2 (≈ 4.7 µM) | –
CCNCc1cc2c3c(ccc2n1C)-c1[nH]c(=O)c(C(=O)O)c(O)c1CCC3 | – | 6.3 (≈ 16.5 µM) | – | – | – | – | – | 12.5 (≈ 32.8 µM) | 19
CNCc1cc2cc3c(cc2n1C)OCCc1c-3[nH]c(=O)c(C(=O)O)c1O | > 12.5 | 0.78 (≈ 2.11 µM) | > 12.5 | 12.5 (≈ 33.8 µM) | 3.1 | – | 1.6 (≈ 4.33 µM) | 1.6 (≈ 4.33 µM) | –
Cn1c(CN2CCCC2)cc2cc3c(cc21)COCc1c-3[nH]c(=O)c(C(=O)O)c1O | – | 0.39 (≈ 0.953 µM) | 12.5 (≈ 30.5 µM) | 12.5 (≈ 30.5 µM) | – | – | 3.1 (≈ 7.57 µM) | 3.1 (≈ 7.57 µM) | –
CNCc1cc2cc3c(cc2n1C)NCCc1c-3[nH]c(=O)c(C(=O)O)c1O | > 62.5 | 3.9 (≈ 10.6 µM) | > 25 | > 25 | – | – | 6.3 (≈ 17.1 µM) | 31.3 (≈ 85 µM) | –
CNCc1cc2cc3c(cc2n1C)SCCc1c-3[nH]c(=O)c(C(=O)O)c1O | 1.6 (≈ 4.15 µM) | 0.49 (≈ 1.27 µM) | 7.8 (≈ 20.2 µM) | 3.9 (≈ 10.1 µM) | 7.8 | 8 - 16 | 1 (≈ 2.59 µM) | 1 (≈ 2.59 µM) | –
CCc1c(-c2ccc3c(c2)cc(C)n3C)[nH]c(=O)c(C(=O)O)c1O | 62.5 (≈ 192 µM) | > 62.5 | – | – | > 62.5 | >40 | – | 1.6 (≈ 4.9 µM) | –
CCNCc1cc2cc3c(cc2n1C)OCCc1c-3[nH]c(=O)c(C(=O)O)c1O | 12.5 (≈ 32.6 µM) | 0.78 (≈ 2.03 µM) | 12.5 (≈ 32.6 µM) | 12.5 (≈ 32.6 µM) | 1.6 | – | 0.78 (≈ 2.03 µM) | 0.78 (≈ 2.03 µM) | –
CCNCc1cc2cc3c(cc2n1C)SCCc1c-3[nH]c(=O)c(C(=O)O)c1O | 1.6 (≈ 4.01 µM) | 0.5 (≈ 1.25 µM) | 3.9 (≈ 9.76 µM) | 3.9 (≈ 9.76 µM) | 15.6 | 8 - 16 | 1 (≈ 2.5 µM) | 1 (≈ 2.5 µM) | –
CCNCc1cc2cc3c(cc2n1C)NCCc1c-3[nH]c(=O)c(C(=O)O)c1O | > 62.5 | 3.9 (≈ 10.2 µM) | > 25 | > 25 | – | – | 6.3 (≈ 16.5 µM) | 15.6 (≈ 40.8 µM) | –
CN(C)CCNCc1cc2cc3c(cc2n1C)CCCc1c-3[nH]c(=O)c(C(=O)O)c1O | – | 0.5 (≈ 1.18 µM) | 62.5 (≈ 147 µM) | 15.6 (≈ 36.7 µM) | 15.6 | – | 2 (≈ 4.71 µM) | 3.9 (≈ 9.19 µM) | –
